The target of assay [1] is Leucine-rich repeat serine/threonine-protein kinase 2 (Homo sapiens, UniProt Q5S007). The conditions noted are these: PBMC, at 1 µM.
Assay [2] deals with B2 bradykinin receptor (Homo sapiens) (UniProt P30411). Put plainly: Selectivity interaction (Eurofins CEREP Diversity Profile (receptors and ion channels)) EUB0000279b BDKRB2. Particulars: at 10 µM.
The target in assay [3] is RAC-beta serine/threonine-protein kinase (Homo sapiens) (UniProt P31751). Particulars: at 10 µM.
RAC-beta serine/threonine-protein kinase (Homo sapiens), sequence (P31751 whole entry): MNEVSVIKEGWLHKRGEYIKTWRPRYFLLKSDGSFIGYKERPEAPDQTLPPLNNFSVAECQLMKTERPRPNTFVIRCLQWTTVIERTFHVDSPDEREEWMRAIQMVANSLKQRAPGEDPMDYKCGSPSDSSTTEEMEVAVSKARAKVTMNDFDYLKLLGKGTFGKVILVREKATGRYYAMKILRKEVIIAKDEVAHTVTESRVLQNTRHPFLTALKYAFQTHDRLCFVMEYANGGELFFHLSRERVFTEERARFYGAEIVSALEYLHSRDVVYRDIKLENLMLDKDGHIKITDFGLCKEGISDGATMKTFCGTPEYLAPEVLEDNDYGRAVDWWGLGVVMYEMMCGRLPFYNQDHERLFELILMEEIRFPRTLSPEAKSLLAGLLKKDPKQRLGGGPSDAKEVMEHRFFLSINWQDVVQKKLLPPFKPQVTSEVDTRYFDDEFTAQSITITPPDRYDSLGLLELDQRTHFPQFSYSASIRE
Assay [4] deals with T1, Dual specificity protein kinase TTK (Homo sapiens) (UniProt P33981).
T1 sequence (whole entry): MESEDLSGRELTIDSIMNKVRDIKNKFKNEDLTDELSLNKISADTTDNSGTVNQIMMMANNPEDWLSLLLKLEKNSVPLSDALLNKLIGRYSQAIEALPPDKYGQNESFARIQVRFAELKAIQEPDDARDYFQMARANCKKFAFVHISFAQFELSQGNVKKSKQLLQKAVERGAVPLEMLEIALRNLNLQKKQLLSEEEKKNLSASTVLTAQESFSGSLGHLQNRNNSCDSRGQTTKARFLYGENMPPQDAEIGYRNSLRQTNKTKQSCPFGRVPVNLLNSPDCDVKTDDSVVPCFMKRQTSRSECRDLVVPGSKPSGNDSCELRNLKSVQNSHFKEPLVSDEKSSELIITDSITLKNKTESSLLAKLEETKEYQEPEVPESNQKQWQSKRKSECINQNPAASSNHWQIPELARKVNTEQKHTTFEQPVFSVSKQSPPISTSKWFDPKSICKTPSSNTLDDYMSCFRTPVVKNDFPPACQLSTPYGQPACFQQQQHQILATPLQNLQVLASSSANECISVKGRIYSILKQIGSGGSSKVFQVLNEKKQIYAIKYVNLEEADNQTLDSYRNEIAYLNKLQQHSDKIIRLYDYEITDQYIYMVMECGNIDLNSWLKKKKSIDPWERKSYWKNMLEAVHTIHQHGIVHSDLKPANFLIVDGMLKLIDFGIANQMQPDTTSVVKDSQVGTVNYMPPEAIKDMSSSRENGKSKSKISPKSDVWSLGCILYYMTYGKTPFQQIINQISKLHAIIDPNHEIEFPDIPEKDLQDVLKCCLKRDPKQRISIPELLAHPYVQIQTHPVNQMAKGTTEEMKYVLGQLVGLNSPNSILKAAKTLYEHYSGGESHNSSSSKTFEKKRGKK
The conditions noted are these: at 10 µM.

For assay [5], the target named is SRSF protein kinase 2 (Homo sapiens) (UniProt P78362). Put plainly: Selectivity interaction (SelectScreen profiling (Invitrogen)) EUB0000607a SRPK2. Particulars: at 2 µM.
SRSF protein kinase 2 (Homo sapiens), sequence (P78362 whole entry, looked up): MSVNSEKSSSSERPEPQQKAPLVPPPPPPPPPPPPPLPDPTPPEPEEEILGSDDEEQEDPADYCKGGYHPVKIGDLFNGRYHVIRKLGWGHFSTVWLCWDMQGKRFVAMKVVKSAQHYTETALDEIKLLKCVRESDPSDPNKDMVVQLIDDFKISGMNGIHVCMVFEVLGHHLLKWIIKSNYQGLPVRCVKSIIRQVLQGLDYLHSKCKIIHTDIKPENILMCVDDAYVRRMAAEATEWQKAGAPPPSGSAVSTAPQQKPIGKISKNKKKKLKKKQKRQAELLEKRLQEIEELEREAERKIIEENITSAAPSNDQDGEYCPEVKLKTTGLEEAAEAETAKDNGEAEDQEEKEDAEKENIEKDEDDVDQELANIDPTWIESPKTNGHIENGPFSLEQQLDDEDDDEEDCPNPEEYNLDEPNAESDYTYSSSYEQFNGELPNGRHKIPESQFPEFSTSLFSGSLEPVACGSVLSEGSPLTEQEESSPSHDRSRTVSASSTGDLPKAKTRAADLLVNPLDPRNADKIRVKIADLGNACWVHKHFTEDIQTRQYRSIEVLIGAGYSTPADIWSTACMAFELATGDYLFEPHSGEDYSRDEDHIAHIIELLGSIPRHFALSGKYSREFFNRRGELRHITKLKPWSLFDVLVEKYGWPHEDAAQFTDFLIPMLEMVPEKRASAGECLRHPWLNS
Assay [6] has as its target AP2-associated protein kinase 1 (Homo sapiens, UniProt Q2M2I8). The conditions noted are these: at 10 µM.
Assay [7] has as its target Ribosomal protein S6 kinase alpha-4 (Homo sapiens) (UniProt O75676). Put plainly: Selectivity interaction (Kinase screening (Nanosyn)) EUB0000604a RPS6KA4.
In assay [8] the target is T2, Serine/threonine-protein kinase LATS2 (Homo sapiens) (UniProt Q9NRM7).
T2 sequence (whole entry): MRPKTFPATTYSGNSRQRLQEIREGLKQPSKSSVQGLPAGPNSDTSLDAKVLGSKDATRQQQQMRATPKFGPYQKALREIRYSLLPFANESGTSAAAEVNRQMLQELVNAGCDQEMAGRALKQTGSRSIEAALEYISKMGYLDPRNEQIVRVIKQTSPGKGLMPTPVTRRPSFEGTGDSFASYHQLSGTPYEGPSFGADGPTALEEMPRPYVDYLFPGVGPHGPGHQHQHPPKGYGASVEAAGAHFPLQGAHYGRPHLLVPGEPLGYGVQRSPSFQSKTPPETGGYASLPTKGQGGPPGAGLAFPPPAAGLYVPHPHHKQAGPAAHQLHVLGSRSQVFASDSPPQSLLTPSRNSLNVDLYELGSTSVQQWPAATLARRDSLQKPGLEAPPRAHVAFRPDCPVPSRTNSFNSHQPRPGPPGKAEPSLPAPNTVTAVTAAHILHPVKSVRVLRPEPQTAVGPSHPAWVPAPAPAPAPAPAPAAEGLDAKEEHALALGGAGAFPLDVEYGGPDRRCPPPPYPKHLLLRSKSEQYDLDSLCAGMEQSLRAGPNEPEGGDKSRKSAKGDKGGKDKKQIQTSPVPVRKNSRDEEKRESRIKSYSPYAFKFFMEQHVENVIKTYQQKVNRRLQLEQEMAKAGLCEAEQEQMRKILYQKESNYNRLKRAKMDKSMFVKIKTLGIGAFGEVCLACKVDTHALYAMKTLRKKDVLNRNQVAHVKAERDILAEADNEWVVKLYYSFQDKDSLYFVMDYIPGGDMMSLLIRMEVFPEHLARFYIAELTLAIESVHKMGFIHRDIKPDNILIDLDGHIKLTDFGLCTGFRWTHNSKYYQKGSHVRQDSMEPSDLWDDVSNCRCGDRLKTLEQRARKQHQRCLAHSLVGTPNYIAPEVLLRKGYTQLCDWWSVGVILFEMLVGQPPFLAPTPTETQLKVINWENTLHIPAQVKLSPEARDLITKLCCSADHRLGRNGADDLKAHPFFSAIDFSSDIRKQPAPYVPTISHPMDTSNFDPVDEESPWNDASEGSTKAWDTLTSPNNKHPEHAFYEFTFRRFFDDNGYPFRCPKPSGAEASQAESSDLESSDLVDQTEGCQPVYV
The assay is described as follows: Selectivity interaction (ActivX KiNativ screen (kinase selectivity in THP-1 cell lysates)) EUB0000639a LATS2. Type of assay: subcellular. Particulars: lysate.

Assay [9] concerns the target Ribosomal protein S6 kinase alpha-1 (Homo sapiens, UniProt Q15418). The assay is described as follows: Selectivity interaction (ActivX KiNativ screen (kinase selectivity in THP-1 cell lysates)) EUB0000639a RPS6KA1. Type of assay: subcellular. Particulars: lysate, at 5 µM.
A short description of assay [10]: Selectivity interaction (ActivX KiNativ screen (kinase selectivity in THP-1 cell lysates)) EUB0000639a STLK6. Particulars: Selectivity number of off-targets 5; Selectivity number of targets 283; Source Knowledge https://pubmed.ncbi.nlm.nih.gov/28498658/; at 5 µM.
In assay [11] the target is Cyclin-dependent kinase 15 (Homo sapiens) (UniProt Q96Q40). The assay is described as follows: Selectivity interaction (Ambit KINOMEscan and KiNATiv profiling in Jurkat cells) EUB0000090b CDK15. Format: cell-based. Particulars: at 1 µM.
Another assay addresses Ephrin type-A receptor 4 (Homo sapiens, UniProt P54764). The assay is described as follows: Selectivity interaction (Upstate Kinase Profiler service (Millipore)) EUB0000056c EPHA4. Particulars: at 1 µM.
Assay [12] deals with Calcium/calmodulin-dependent protein kinase type II subunit delta (Homo sapiens) (UniProt Q13557). Put plainly: Selectivity interaction (KinomeScan (DiscoverX)) EUB0000655a CAMK2D. The conditions noted are these: at 10 µM.
Calcium/calmodulin-dependent protein kinase type II subunit delta (Homo sapiens), sequence (Q13557 whole entry): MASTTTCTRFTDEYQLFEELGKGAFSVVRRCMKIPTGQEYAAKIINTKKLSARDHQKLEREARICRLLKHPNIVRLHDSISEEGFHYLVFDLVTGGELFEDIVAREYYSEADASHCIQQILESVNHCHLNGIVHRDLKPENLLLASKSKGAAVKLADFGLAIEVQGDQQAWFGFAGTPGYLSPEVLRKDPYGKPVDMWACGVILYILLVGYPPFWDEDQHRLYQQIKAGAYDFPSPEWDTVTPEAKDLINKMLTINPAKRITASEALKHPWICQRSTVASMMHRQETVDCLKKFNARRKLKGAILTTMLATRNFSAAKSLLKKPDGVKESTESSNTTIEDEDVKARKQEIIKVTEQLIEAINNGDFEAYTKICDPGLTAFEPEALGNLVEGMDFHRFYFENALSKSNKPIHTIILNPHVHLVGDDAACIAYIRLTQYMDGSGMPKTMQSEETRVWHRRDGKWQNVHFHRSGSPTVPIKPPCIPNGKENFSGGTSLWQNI

AP2-associated protein kinase 1, sequence (Q2M2I8 whole entry, looked up): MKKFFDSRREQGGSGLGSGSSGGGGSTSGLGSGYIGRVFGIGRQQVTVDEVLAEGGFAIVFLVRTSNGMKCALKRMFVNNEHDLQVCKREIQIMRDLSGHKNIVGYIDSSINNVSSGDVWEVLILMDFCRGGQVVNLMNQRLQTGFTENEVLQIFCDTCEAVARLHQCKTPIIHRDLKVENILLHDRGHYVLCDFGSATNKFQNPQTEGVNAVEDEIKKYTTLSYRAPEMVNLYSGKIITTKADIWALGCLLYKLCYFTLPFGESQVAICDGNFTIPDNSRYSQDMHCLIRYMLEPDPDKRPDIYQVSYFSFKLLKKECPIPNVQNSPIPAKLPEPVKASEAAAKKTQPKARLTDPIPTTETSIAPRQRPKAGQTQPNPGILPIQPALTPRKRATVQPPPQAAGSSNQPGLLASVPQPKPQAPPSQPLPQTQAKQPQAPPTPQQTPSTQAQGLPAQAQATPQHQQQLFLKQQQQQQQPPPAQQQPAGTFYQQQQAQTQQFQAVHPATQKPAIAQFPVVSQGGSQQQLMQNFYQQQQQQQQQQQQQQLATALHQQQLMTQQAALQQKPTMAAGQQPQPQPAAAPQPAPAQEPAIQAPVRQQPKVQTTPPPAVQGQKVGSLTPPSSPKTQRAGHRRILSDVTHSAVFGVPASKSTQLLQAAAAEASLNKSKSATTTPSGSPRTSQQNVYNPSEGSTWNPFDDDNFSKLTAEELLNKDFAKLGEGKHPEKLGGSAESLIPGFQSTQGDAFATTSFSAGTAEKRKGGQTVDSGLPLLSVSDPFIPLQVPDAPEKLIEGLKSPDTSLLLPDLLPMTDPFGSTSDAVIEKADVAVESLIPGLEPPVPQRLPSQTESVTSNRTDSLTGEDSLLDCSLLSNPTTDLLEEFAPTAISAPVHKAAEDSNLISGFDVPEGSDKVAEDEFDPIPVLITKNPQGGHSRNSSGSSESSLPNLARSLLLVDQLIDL
Ephrin type-A receptor 4, sequence (P54764 whole entry): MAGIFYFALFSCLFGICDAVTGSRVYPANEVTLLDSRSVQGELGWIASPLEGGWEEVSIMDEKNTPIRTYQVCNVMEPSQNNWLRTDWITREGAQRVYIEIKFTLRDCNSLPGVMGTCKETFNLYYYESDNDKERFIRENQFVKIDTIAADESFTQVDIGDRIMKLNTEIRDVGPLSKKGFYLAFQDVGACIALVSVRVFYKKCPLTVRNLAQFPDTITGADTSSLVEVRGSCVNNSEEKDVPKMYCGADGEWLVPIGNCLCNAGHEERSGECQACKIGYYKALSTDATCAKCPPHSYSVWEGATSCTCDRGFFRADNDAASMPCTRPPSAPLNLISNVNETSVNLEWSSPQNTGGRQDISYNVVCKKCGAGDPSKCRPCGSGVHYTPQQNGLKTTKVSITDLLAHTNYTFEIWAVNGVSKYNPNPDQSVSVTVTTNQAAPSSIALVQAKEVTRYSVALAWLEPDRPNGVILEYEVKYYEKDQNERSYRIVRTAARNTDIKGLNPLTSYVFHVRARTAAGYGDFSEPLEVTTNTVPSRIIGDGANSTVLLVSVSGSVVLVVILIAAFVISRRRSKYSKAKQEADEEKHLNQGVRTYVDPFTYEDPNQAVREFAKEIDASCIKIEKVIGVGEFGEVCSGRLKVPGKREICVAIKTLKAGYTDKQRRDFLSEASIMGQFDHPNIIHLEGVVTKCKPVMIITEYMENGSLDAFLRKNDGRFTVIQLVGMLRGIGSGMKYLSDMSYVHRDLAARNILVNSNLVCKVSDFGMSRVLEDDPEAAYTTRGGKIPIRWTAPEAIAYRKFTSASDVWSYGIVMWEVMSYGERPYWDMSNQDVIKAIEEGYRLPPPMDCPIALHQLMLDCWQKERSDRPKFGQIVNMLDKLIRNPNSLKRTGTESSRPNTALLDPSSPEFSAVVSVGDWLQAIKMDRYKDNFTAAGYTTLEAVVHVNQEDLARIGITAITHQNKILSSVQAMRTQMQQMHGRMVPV
Ribosomal protein S6 kinase alpha-4 (Homo sapiens), sequence (O75676 whole entry, looked up): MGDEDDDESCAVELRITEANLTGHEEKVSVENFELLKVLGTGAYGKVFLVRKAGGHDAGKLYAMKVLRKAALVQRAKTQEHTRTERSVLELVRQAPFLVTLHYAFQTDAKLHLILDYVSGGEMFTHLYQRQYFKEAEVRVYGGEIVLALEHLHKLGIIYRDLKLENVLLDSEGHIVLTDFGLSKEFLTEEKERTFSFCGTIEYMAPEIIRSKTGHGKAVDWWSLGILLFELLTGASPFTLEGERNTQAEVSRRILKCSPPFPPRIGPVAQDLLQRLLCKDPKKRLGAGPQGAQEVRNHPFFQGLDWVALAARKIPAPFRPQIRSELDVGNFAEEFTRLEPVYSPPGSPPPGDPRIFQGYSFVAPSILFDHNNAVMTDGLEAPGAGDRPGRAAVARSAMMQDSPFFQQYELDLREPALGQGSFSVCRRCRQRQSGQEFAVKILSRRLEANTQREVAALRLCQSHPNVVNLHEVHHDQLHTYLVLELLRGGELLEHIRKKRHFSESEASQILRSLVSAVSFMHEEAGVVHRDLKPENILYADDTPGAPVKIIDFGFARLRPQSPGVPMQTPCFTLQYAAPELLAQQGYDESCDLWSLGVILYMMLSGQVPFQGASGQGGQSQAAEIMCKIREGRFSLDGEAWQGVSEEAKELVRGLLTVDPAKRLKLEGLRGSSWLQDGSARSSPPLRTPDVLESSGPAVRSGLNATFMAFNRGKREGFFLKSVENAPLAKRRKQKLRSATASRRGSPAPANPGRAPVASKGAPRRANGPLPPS
B2 bradykinin receptor (Homo sapiens), sequence (P30411 whole entry): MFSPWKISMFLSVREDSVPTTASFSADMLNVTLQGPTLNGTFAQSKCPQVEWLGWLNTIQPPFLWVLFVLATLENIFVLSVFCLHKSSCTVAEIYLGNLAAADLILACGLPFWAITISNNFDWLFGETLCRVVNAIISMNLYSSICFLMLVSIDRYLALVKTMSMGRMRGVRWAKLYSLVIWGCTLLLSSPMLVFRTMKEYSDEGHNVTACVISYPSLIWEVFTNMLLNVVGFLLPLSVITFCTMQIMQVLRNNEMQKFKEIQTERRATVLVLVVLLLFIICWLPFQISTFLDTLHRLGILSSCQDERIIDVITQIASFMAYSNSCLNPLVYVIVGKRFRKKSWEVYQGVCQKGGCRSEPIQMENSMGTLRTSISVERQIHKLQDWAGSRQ

Turning to `N#Cc1cccc(-c2c[nH]c3ncnc(N4CCOCC4)c23)c1`, in assay [1], the % of inhibition was 94%.
In the case of `CC(=O)c1cc(-c2ccccc2OCC2CC2)c2ncccn12`, the % of control in assay [2] is 112%.
Consider `CCN(CC)CCCCNc1ncc2cc(-c3cc(OC)cc(OC)c3)c(NC(=O)NC(C)(C)C)nc2n1`, for which the % of control in assay [3] and in [4] was 100% in each case.
With `CNC(=O)Nc1ccc(-c2nc(N3CC4CCC(C3)O4)c3cnn(C4CCC5(CC4)OCCO5)c3n2)cc1`, in assay [5], the % of inhibition came to 1%.
Turning to `Cc1cc([C@@H](C)Nc2ccccc2C(=O)O)c2nc(N3CCOCC3)cc(=O)n2c1` [AZD-6482], the % of control in [6] was 95%.
As to `Cc1cnc(Nc2ccc(F)cc2Cl)nc1-c1c[nH]c(C(=O)N[C@H](CO)c2cccc(Cl)c2)c1`, in assay [7], the % of inhibition came to 6%.
On to `CC[C@@H]1[C@H](F)C(=O)N[C@@H]1COc1nccc2cc(C(N)=O)c(OC)cc12` [ZIMLOVISERTIB], for which the % of inhibition in assay [8] (at 0.01 µM) was -10.4%; in [8] (at 0.04 µM) it was -16%; in assay [8] (at 0.2 µM), 2.1%; in assay [8] (at 1 µM) it was 32.5%; in assay [8] (at 5 µM), 85%; in [9] it was -38%. For the same molecule, in [10], the “% of inhibition” value was -4.2%.
`CN(C)C/C=C/C(=O)Nc1ccc(C(=O)N2CCCC(Nc3ncc(Cl)c(-c4c[nH]c5ccccc45)n3)C2)cc1` (configuration not stated) returned a % of control in assay [11] of 73%.
Consider `Cc1ccc(-c2ccc3c(ccc4sc5c(c43)NC[C@@H](C)NC5=O)n2)cn1`, for which, on Ephrin type-A receptor 4, the % of inhibition came to 7%.
On to `CN(C)CCOc1ccc(-c2nc(-c3ccncc3)c(-c3ccc4c(c3)CC/C4=N\O)[nH]2)cc1`, for which the % of control in assay [12] is 100%.

The values above are taken from ChEMBL document CHEMBL5465560, “Selectivity Literature for EUbOPEN Chemogenomic Library” (2024).
